Values after ≈ are worked out from the molar mass of the structure shown. Like-named read-outs stand apart in the source and are kept apart here.
Key:
E. faecalis [1] = test: Minimum Inhibitory Concentration (MIC) assay, E. faecalis; type: cell-based, Enterococcus faecalis; settings: for MIC: first figure of MIC/MBC, read-out: MIC for E. faecalis; for Growth inhibition of the pathogen of interest compared to the compound of Example 14 in WO 2018/229141: conclusion from Table 3 (E. faecalis and MRSA)
Description: (§1) The cultures (200 μl) were incubated at 37° C. for 24 h. […] The MIC was measured in micromolar concentration, i.e. μM. Objectively, this was determined by measuring the optical density (i.e. OD) of the test cultures at 600 nm using a spectrophotometer. As used herein, OD600 stands for optical density at a wavelength of 600 nm (i.e. 600 nanometers).

E. faecalis OG1RF = test: Combined activity with gentamicin, vancomycin or ampicillin, E. faecalis OG1RF; type: cell-based, Enterococcus faecalis; settings: for E. faecalis activity, combination with gentamicin compared to gentamicin alone, compound alone and comparative example alone / E. faecalis activity, combination with gentamicin compared to the combination of the comparative example and gentamicin / E. faecalis activity, combination with vancomycin compared to vancomycin alone or compound alone: subinhibitory compound 1-4 μM, OD600 24 h; for E. faecalis activity, combination with gentamicin compared to gentamicin alone, compound alone and comparative example alone / E. faecalis activity, combination with gentamicin compared to the combination of the comparative example and gentamicin / OD600 at 24 h when combined with gentamicin / Synergistic effect when combined with gentamicin: gentamicin 16 μg/ml; for E. faecalis activity, combination with vancomycin compared to vancomycin alone or compound alone: vancomycin 1 μg/ml; for Synergistic effect when combined with gentamicin: 24 h
Description: (§2) […]. The concentrations used in the experiments with E. faecalis OG1RF were 16 μg/ml gentamicin, 1 μg/ml vancomycin or 1 μg/ml ampicillin. In experiments where combinations were tested against MRSA 1369, 0.05 μg/ml gentamicin, 1 μg/ml vancomycin or 16 μg/ml ampicillin was used.
(§3) Bacterial cultures (190 μl) at a starting OD=0.001 at OD600 were incubated together with either subinhibitory concentrations of gentamicin/vancomycin/ampicillin or compound alone, or a combination of the two. The cultures (200 μl) were incubated at 37° C. for 24 h. A control sample without compound and gentamicin/vancomycin/ampicillin but containing compound vehicle (DMSO) and gentamicin/vancomycin/ampicillin vehicle (MQ water) was performed the same way. After 24 h, the effect on bacterial growth compared to untreated control samples was determined by measuring optical density at 600 nm with a spectrophotometer.
[…]. MIC/MBC values for the compounds administered alone are also shown for comparison. Unless otherwise stated, the compound was provided in a concentration of 1 μM.

MRSA 1369 = test: Combined activity with gentamicin, vancomycin or ampicillin, MRSA 1369; type: cell-based, Methicillin-resistant Staphylococcus aureus; settings: subinhibitory compound 1-4 μM, OD600 24 h; for MRSA activity, combination with vancomycin compared to vancomycin alone or compound alone: vancomycin 1 μg/ml
Description: as §2, §3

MRSA [2] = test: Minimum Inhibitory Concentration (MIC) assay, MRSA; type: cell-based, Methicillin-resistant Staphylococcus aureus; settings: 24 h, no antibiotic, 37° C., n.d. = activity not observed at the concentrations tested, read-out: MIC for MRSA
Description: as §1

E. faecalis [3] = test: Minimum Bactericidal Concentration (MBC) assay, E. faecalis; settings: for MBC: Enterococcus faecalis, read-out: MBC for E. faecalis; for MBC for E. faecalis: second figure of MIC/MBC
MRSA [4] = test: Minimum Bactericidal Concentration (MBC) assay, MRSA; settings: compound alone, no antibiotic, MIC cultures plated on BHI, second figure of MIC/MBC, n.d. = activity not observed at the concentrations tested; for MBC: Staphylococcus aureus, MRSA, read-out: MBC for MRSA, Table 3
[5] = Enterococcus faecalis, 24 h, Table 3, compound alone, no antibiotic, 24 h, 37° C., OD600, n.d. = activity not observed at the concentrations tested
[6] = Staphylococcus aureus, MRSA, Table 3, compound alone, OD600, first figure of MIC/MBC
[7] = Table 4, compound administered alone, n.d. = activity not observed
[8] = compound 1 μM, n.d. = activity not observed
[9] = Enterococcus faecalis, Table 4, compound administered alone, n.d. = activity not observed

## O=C(O)C12C[C@@H](c3c(Cl)cccc3Cl)C1Sc1c(C3CC3)c(Cc3cccc4ccccc34)cc(=O)n12 (stereo partly drawn) [Example 33]
E. faecalis [1]; [5]
  MIC: 5 µM (≈ 2.74 µg/mL)
E. faecalis [1]; compound alone
  Growth inhibition of the pathogen of interest compared to the compound of Example 14 in WO 2018/229141: substantially similar extent or to a higher extent
E. faecalis OG1RF
  E. faecalis activity, combination with gentamicin compared to gentamicin alone, compound alone and comparative example alone: much larger extent
  E. faecalis activity, combination with gentamicin compared to the combination of the comparative example and gentamicin: much larger extent
  E. faecalis activity, combination with vancomycin compared to vancomycin alone or compound alone: much larger extent
MRSA 1369; ampicillin 16 μg/ml
  MRSA activity, combination with ampicillin compared to ampicillin alone or compound alone: much larger extent
MRSA 1369
  MRSA activity, combination with vancomycin compared to vancomycin alone or compound alone: much larger extent
MRSA [2]; [6]
  MIC: 5 µM (≈ 2.74 µg/mL)

## O=C(O)C12C[C@@H](c3cccc(C(F)(F)F)c3)C1Sc1c(C3CC3)c(Cc3cccc4ccccc34)cc(=O)n12 (single isomer, unassigned) [Example 3]
E. faecalis [3]
  MBC: 25 µM (≈ 13.7 µg/mL)
E. faecalis [3]; [7]
  MBC for E. faecalis: 25 µM
E. faecalis [1]; [5]
  MIC: 10 µM (≈ 5.48 µg/mL)
E. faecalis [1]; [7]
  MIC: 10 µM (≈ 5.48 µg/mL)
MRSA [4]
  MBC: 5 µM (≈ 2.74 µg/mL)
E. faecalis OG1RF; compound 1 μM
  OD600 at 24 h when combined with gentamicin: OD600 = 0.35 at 24 h
E. faecalis OG1RF; [8]
  Synergistic effect when combined with gentamicin: Yes
MRSA [2]; [6]
  MIC: 5 µM (≈ 2.74 µg/mL)

## Cc1cc(C)cc([C@@H]2CC3(C(=O)O)C2Sc2c(C4CC4)c(Cc4cccc5ccccc45)cc(=O)n23)c1 (stereo partly drawn) [Example 21]
E. faecalis [3]
  MBC: 25 µM (≈ 12.7 µg/mL)
E. faecalis [1]; [5]
  MIC: 5 µM (≈ 2.54 µg/mL)
E. faecalis [1]; [9]
  MIC: 5 µM (≈ 2.54 µg/mL)
E. faecalis [1]; compound alone
  Growth inhibition of the pathogen of interest compared to the compound of Example 14 in WO 2018/229141: substantially similar extent or to a higher extent
MRSA [4]
  MBC: 7.5 µM (≈ 3.81 µg/mL)
E. faecalis OG1RF; compound 1 μM
  OD600 at 24 h when combined with gentamicin: OD600 = 0.1
E. faecalis OG1RF; [8]
  Synergistic effect when combined with gentamicin: Yes
E. faecalis OG1RF
  E. faecalis activity, combination with gentamicin compared to gentamicin alone, compound alone and comparative example alone: much larger extent
MRSA [2]; [6]
  MIC: 3 µM (≈ 1.52 µg/mL)

## CN(C)c1c(Cc2cccc3ccccc23)c(C2CC2)c2n(c1=O)C1(C(=O)O)C[C@@H](c3cccc(C(F)(F)F)c3)C1S2 (stereo partly drawn) [Example 5]
E. faecalis [3]
  MBC: 25 µM (≈ 14.8 µg/mL)
E. faecalis [1]; [5]
  MIC: 5 µM (≈ 2.95 µg/mL)
E. faecalis [1]; [9]
  MIC: 5 µM (≈ 2.95 µg/mL)
E. faecalis [1]; compound alone
  Growth inhibition of the pathogen of interest compared to the compound of Example 14 in WO 2018/229141: substantially similar extent or to a higher extent
MRSA [4]
  MBC: 4 µM (≈ 2.36 µg/mL)
E. faecalis OG1RF; compound 1 μM
  OD600 at 24 h when combined with gentamicin: OD600 = 0
E. faecalis OG1RF; [8]
  Synergistic effect when combined with gentamicin: Yes
E. faecalis OG1RF
  E. faecalis activity, combination with gentamicin compared to gentamicin alone, compound alone and comparative example alone: much larger extent
  E. faecalis activity, combination with gentamicin compared to the combination of the comparative example and gentamicin: much larger extent
MRSA [2]; [6]
  MIC: 3 µM (≈ 1.77 µg/mL)

## O=C(O)C12C[C@@H](c3cccc(C(F)(F)F)c3)C1Sc1c(C3CC3)c(Cc3cccc4ccccc34)cc(=O)n12 (single isomer, unassigned) [Example 1]
E. faecalis [3]; Table 3, compound alone, no antibiotic, MIC cultures plated on BHI, n.d. = activity not observed at the concentrations tested
  MBC for E. faecalis: 25 µM
E. faecalis [1]; [9]
  MIC: 10 µM (≈ 5.48 µg/mL)
E. faecalis [1]; Table 3, compound alone, no antibiotic, 24 h, 37° C., OD600, n.d. = activity not observed at the concentrations tested
  MIC: 10 µM (≈ 5.48 µg/mL)
MRSA [4]; Table 3
  MBC for MRSA: 10 µM
E. faecalis OG1RF; compound 2 μM
  Synergistic effect when combined with gentamicin: Yes
MRSA [2]; Table 3, compound alone, OD600, first figure of MIC/MBC
  MIC: 5 µM (≈ 2.74 µg/mL)

## O=C(O)C12C[C@@H](c3cccc(Cl)c3)C1Sc1c(C3CC3)c(Cc3cc4ccccc4s3)cc(=O)n12 (stereo partly drawn) [Example 30]
E. faecalis [1]; [5]
  MIC: 5 µM (≈ 2.6 µg/mL)
E. faecalis OG1RF
  E. faecalis activity, combination with gentamicin compared to gentamicin alone, compound alone and comparative example alone: much larger extent
  E. faecalis activity, combination with gentamicin compared to the combination of the comparative example and gentamicin: much larger extent
  E. faecalis activity, combination with vancomycin compared to vancomycin alone or compound alone: much larger extent
MRSA 1369; gentamicin 0.05 μg/ml
  MRSA activity, combination with gentamicin compared to gentamicin alone or compound alone: much larger extent
MRSA 1369
  MRSA activity, combination with vancomycin compared to vancomycin alone or compound alone: much larger extent
MRSA [2]; [6]
  MIC: 5 µM (≈ 2.6 µg/mL)

Source: patent US12503476B2, “Ring-fused 2-pyridone compounds, methods for preparation thereof and their use in the treatment and/or prevention of a disease involving gram-positive bacteria” (QURETECH BIO AB, priority 2020, dated 2025)
